The values that follow come from patent US10071103B2, “Treatments for resistant acne” (VYOME BIOSCIENCES PVT. LTD., priority 2014, dated 2018).

The structures appear in SMILES notation. Converted amounts (≈) assume the structure as drawn. Read-outs that look alike come from different tables or passages of the source.

The test system of data set [1] is P. acnes CCARM 9010. Briefly: MIC by micro broth dilution (Alamar blue), clindamycin-resistant/nonresponsive P. acnes. The data set is classed as cell-based, Propionibacterium acnes. Conditions: for Activity / bacterial killing, dose response curve (in words): clindamycin-nonresponsive CCARM 9010. On the technique in general: Broth dilution looks for growth in wells or tubes with falling amounts of substance.

For data set [2], the system named is P. acnes MTCC 1951. The data set can be described thus: MIC by micro broth dilution (Alamar blue), clindamycin-susceptible P. acnes. The data set is classed as cell-based, Propionibacterium acnes. Particulars: for MIC: Cutibacterium acnes, MTCC1951; for Activity / bacterial killing, dose response curve (in words): clindamycin-susceptible MTCC 1951. In short, it runs like this:
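P. acnes in BHI broth, inoculum adjusted to 0.5 McFarland and diluted 100-fold, exposed to serially diluted compound at 37° C. for 48-72 h under anaerobic conditions. Growth read by OD at 595 nm; MIC recorded after Alamar blue addition.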

Data set [3] has as its system P. acnes MTCC 1951. The data set is classed as cell-based, Propionibacterium acnes. Conditions: for MPC/MIC: ratio against P. acnes. The procedure: 3 to 4 Petri plates containing 48 h P. acnes culture was suspended in sterile Phosphate buffer saline, PBS (pH 7.2) and turbidity was adjusted to optical density of 1 at 600 nm (10^9 cells/ml). 50 ml of this culture suspension was centrifuged at 4000 rpm for 40 min. The supernatant was discarded and pellet resuspended in 250 μl of sterile PBS. 50 μl of these cell suspensions (10^10 cells) was spread over the plates containing various concentrations of antibiotics (around MIC range). Plates were incubated at 37° C. for 48 h and the lowest concentration of the drug that allowed no growth was taken as its MPC.

Data set [4] has as its system THP-1 cells. The data set can be described thus: Viability of THP-1 cells under treatment. Type of data set: cell-based. Conditions: 25 μg/ml of compound 91.
Data set [5] relates to IL-6. Briefly: P. acnes-induced IL-6 release in THP-1 cells (ELISA). Particulars: 25 μg/ml, THP-1 cells, 100% = P. acnes induced cells. The data set is classed as cell-based. On the technique in general: An ELISA detects its analyte on a solid surface through an enzyme-linked reagent.
The subject of data set [6] is IL-1α. Briefly: P. acnes-induced IL-1α release in THP-1 cells (ELISA). Type of data set: cell-based. Conditions: 25 μg/ml, 100% = P. acnes induced cells. The procedure: Method: Preparation of Stimulant for Inflammation: P. acnes culture suspension was prepared in PBS and the cell number in the suspension was adjusted to approximately 5×10^8 CFU/ml by measuring the cell density using a Densimat. The bacterial suspension was then heat killed at 80° C. for 30 min and stored at −80° C. until further use.
Cells were seeded in a 96-well format (2×10^5 THP-1 cells per well) in media containing 10% FBS. The cells were stimulated to induce inflammatory cytokines using 3 McFarland equivalent heat-killed P. acnes. Cells in control wells were treated with PBS. One hour after induction with P. acnes, test agents were added to the induced cells at appropriate concentrations to be tested (compound 91 at 25 μg/ml). The plates were incubated at 37° C. for 24 hours. After 24 h, the plates were centrifuged to pellet the cells and the supernatants were collected. The cell culture supernatants thus obtained were analyzed for levels of cytokines (IL-1α, IL-1β, IL-6 and IL-8) by ELISA using R&D Systems kits for individual cytokines following the manufacturer's instructions.

Data set [7] deals with IL-8. Briefly: P. acnes-induced IL-8 release in THP-1 cells (ELISA). Type of data set: cell-based. Conditions: 25 μg/ml.

For orientation: MIC means the smallest concentration in the dilution series that meets the test's criterion for growth inhibition. As to `Cc1ncc([N+](=O)[O-])n1CC(O)CN1CCN(c2cc3c(cc2F)c(=O)c(C(=O)O)c2n3C(C)S2)CC1` (centres unmarked) [Compound 91, 6-Fluoro-7-{4-[2-hydroxy-3-(2-methyl-5-nitro-imidazol-1-yl)-propyl]-piperazin-1-yl}-1-methyl-4-oxo-4H-2-thia-8b-aza-cyclobuta[a]naphthalene-3-carboxylic acid], the minimal inhibitory concentration (MIC) in data set [1] (Cutibacterium acnes, CCARM9010, read-out: MIC Resistant P. acnes (9010) strain) was determined as 0.1 µg/mL (≈ 0.188 µM); in data set [2] (Table 7, against P. acnes, read-out: MIC), 0.2 µg/mL (≈ 0.376 µM); in data set [2] (read-out: MIC Susceptible P. acnes (1951) strain) it was 0.2 µg/mL (≈ 0.376 µM). Moreover, the “Activity / bacterial killing, dose response curve (in words)” value in data set [1] is “highly efficacious bacterial killing profile”; in data set [1] (listed as compound 91), “lower MIC value and faster bacterial killing profile”; in data set [2] it was “highly efficacious bacterial killing profile”; in data set [2] (listed as compound 91), “lower MIC value and faster bacterial killing profile”. The molecule also showed an MPC in data set [3] (P. acnes, 10^10 cells inoculum) of 0.3 to 0.6 µg/mL. Moreover, the MPC/MIC in data set [3] was 1.5-3; in data set [3] (listed as compound 91) it was 1.5. The “Viability of THP-1 cells” value in data set [4] came to 90%. Besides, the “Percentage reduction in P. acnes induced IL-6 release” value in data set [5] is reported as 56.76%; in data set [5] (listed as compound 91), about 60%. The “Percentage reduction in P. acnes induced IL-1α release” value in data set [6] is given as 27.51%; in data set [6] (listed as compound 91), 20-25%. Besides, in data set [7] (P. acnes-induced THP-1 cells), the “Effect on IL-8 levels (in words)” value is on record as “did not have an effect”. Also, the “Percentage reduction in P. acnes induced IL-8 release” value in data set [7] (THP-1 cells, 100% = P. acnes induced cells) is on record as 14.65%.
